Assay results: patent US20120095445A1, “METHODS AND COMPOSITIONS FOR INCREASING TRICHOGENIC POTENCY OF DERMAL CELLS” (Aderans Research Institute, Inc., priority 2009, published 2012)

How the values were obtained:
[1] = test system: human adult dermal cells; assay: Aderans Hair Patch Assay (hybrid patch assay) with cultured human adult dermal cells; format: cell-based
Text: Trichogenic activity of populations of dermal cells can be determined by using the Aderans Hair Patch Assay™ (Zheng, Y., J Invest Dermatol, 124: 867-876 (2005)). In this assay dissociated dermal and epidermal cells are implanted into the dermis or the subcutis of an immunoincompetent mouse. Using mouse newborn skin cells, new hair follicles typically form in this assay within 8 to 10 days. The newly formed follicle manifests normal hair shafts, mature sebaceous glands, and a natural hair cycle. Although normal cycling hair follicles are formed in this assay, the assay primarily measures the ability of cells or combinations of cells to form new follicles. Mouse dermal cells are assayed in conjunction with mouse neonatal epidermal cells.
(§1) Trichogenic activity of populations of dermal cells was determined by the Aderans Hair Patch Assay™ (Zheng, Y., J Invest Dermatol, 124: 867-876 (2005)). In this assay dissociated dermal and epidermal cells are implanted into the dermis or the subcutis of an immunoincompetent mouse. Using mouse newborn skin cells, new hair follicles typically form in this assay within 8 to 10 days. The newly formed follicle manifests normal hair shafts, mature sebaceous glands, and a natural hair cycle. Although normal cycling hair follicles are formed in this assay, the assay primarily measures the ability of cells or combinations of cells to form new follicles. In the classical Patch assay mouse neonatal dermal cells were assayed in conjunction with mouse neonatal epidermal cells. In a modification of that assay human adult dermal cells are assayed in the presence of mouse newborn epidermal cells.
In the initial study four different concentrations of one of the Curls, Inc. Shh pathway agonist (agonist A-CUR-0201365) were used, 0, 0.005, 0.05 and 0.125 ug/ml (FIG. 2A). […] The number of hair follicles formed in the hair patch assay is greater when the cells are grown in the presence of the Shh pathway agonist.
To investigate if Shh pathway agonist can increase cell inductivity with short-term treatment (7 days before harvest); 3 patient samples were tested using agonist B. For each sample, the cells were treated with 0, 0.0125, 0.0375, 0.05 and 0.15 ug/ml of Shh pathway agonist B at the passage P1 or P2. P1 and P2 cells were then harvested after approximately 7 days and analyzed in the hybrid patch assay. […] Cells were treated for that 7 day period only, but not treated prior to that.

[2] = test system: dermal cells; assay: Growth and yield of dermal cells in culture (population doubling time, number of cells); format: cell-based, human
Text: FIG. 3A is a graph showing the population doubling time of dermal cells treated with the indicated amount of a Shh pathway agonist. FIG. 3B is a graph showing number of cells (millions) of dermal cells treated with Shh pathway agonist at confluence.
FIG. 5A is a graph showing the average number of cells (millions) in flasks using dermal cells treated with the indicated amount of Shh pathway agonist after one passage in culture. FIG. 5B is a graph showing the average number of cells (millions) in flasks using dermal cells treated with the indicated amount of Shh pathway agonist after two passages in culture. FIG. 5C is a graph of population doubling time (days) for dermal cells treated with the indicated amount of Shh pathway agonist after one passage in culture. FIG. 5D is a graph of population doubling time (days) for dermal cells treated with the indicated amount of Shh pathway agonist after two passages in culture.

[3] = test system: human fetal cells; assay: Aderans Hair Patch Assay with human fetal cell cultures; format: cell-based; conditions: for effect on hair number: FIG. 9
Text: FIG. 7 is a graph of the number of hair follicles formed from human fetal cell cultures in the Aderans Hair Patch Assay™ versus the indicated cell culture passage P0, P1, P2 or P3 in cells culture with a Shh pathway agonist. Each passage has a pair of columns with the left column corresponding to results obtained without treating the cells with an agonist and a right column showing results with cells treated with an agonist.
FIG. 8 is a graph of number of hair follicles formed from human fetal cell cultures in the Aderans Hair Patch Assay™ in untreated or treated cells at the indicated cell culture passage.
FIG. 9 is a graph of the number of hair follicles formed from human fetal cell cultures in the Aderans Hair Patch Assay™ in the indicated medium.
as §1
We have recently extended our study of the impact of SHH pathway agonist B (CUR-0236715) on hair inducing activity from human adult cells to human fetal cells, as well as mouse cells.
In another experiment, cells were initially cultured in medium without SHH pathway agonist. The SHH pathway agonist CUR-0236715 was only added to the culture at the beginning of a particular passage, and lasted for that passage only (P1 and P4 as shown in FIG. 8). Adding SHH pathway agonist B (CUR-0236715) at these later passages can still increase fetal cell trichogenicity.

[4] = test system: mouse neonatal dermal cells; assay: Patch assay with mouse neonatal dermal cell culture; format: cell-based
Protocol: as §1
In addition to cultured human cells, the SHH pathway agonist B was added to mouse neonatal dermal cell culture.

| Compound | hair follicles in the patch assay (per million cells injected) compared to non-treated cells ([1]; cells grown in medium with agonist, 0.005-0.625 ug/ml, FIG. 2) | trichogenicity with passage (P1 through P4) ([1]; highest concentration, without agonist trichogenicity diminished) | dose-response relationship of hair follicle number in patch assay ([1]; increasing agonist concentration in the medium) | cell growth rate ([2]; in the higher concentrations, FIG. 3) | short term results versus continuous treatment ([1]; 7 day treatment only) | optimal concentration for hair follicle formation ([1]; continuous treatment, at P2, FIG. 4B) | hair follicle number in patch assays ([1]; continuous treatment, various agonist concentrations, FIG. 4) | hair follicle numbers compared to the control ([1]; short-term treatment (7 days before harvest), 0.0125-0.15 ug/ml, P1 or P2, 3 patient samples, FIGS. 6A and 6B) | optimal concentration ([1]; short-term treatment (7 days), P1 and P2 cells) | increase in hair number ([3]; 37.5 ng/ml at P0, FIG. 7) | effect on hair number ([3]; Amniomax, Chang's media and culture medium of Osada et al.) | effect on hair number ([3]; agonist added to cell culture medium) | number of hair follicles versus cells consistently treated throughout the culture ([3]; agonist only at P1 or P4) | number of hair follicles formed versus no SHH control cells ([3]; agonist only at P1 or P4, for that passage only, FIG. 8) | increase of hair number at later passages ([3]; cells continuously cultured in the presence of agonist, FIG. 7) | size of hair follicles compared to non-treated cells [4] | activity as indicated by the number of hair follicles formed in patch assay ([4]; preliminary data, FIG. 10) | adverse effect on cell growth or yield ([2]; all the concentrations tested, FIG. 5) |
| --- | --- | --- | --- | --- | --- | --- | --- | --- | --- | --- | --- | --- | --- | --- | --- | --- | --- | --- |
| CNC1CCC(N(Cc2cc(-c3ccccc3)ccc2OC)C(=O)c2sc3ccccc3c2Cl)CC1 (stereo not drawn) [agonist A] | produced more hair follicles | remained at a high level | increasing effect (hair follicle number in patch assay) with increasing Shh pathway agonist concentration | decreases | – | – | – | – | – | – | – | – | – | – | – | – | – | – |
| CNC1CCC(N(Cc2cc(-c3ccc(NS(C)(=O)=O)nc3)ccc2OC)C(=O)c2sc3c(F)ccc(F)c3c2Cl)CC1 (stereo not drawn) [agonist B] | – | – | – | – | comparable to that of continuous treatment | 0.0375 µg/mL | increased hair follicle number | higher hair follicle numbers | 0.0375 µg/mL | more than 3 fold | not significant | increase of hair number | equivalent | about 5 fold | extended to later passages (P3) | increased significantly | increased activity | did not show any adverse effect |
